# Assays:
# I38T mutant = conditions: cited from earlier work
# [1] = target: T1, I38T mutant PAN endonuclease (Influenza A virus, UniProt C3W5S0, DEL52-63/E64G/I38T); assay type: binding, influenza A/California/04/2009(H1N1)
# WT and I38T mutants = conditions: cited from earlier work
# WT PAN endonuclease [2] = target: T2, WT PAN endonuclease (Influenza A virus, UniProt C3W5S0, DEL52-63/E64G); assay type: binding, influenza A/California/04/2009(H1N1); conditions: 200 µM
# [3] = target: T1, I38T mutant PAN endonuclease; assay type: binding, influenza A/California/04/2009(H1N1); remark: listed apart in the source
# WT PAN endonuclease [4] = target: T2, WT PAN endonuclease; assay type: binding, influenza A/California/04/2009(H1N1)
# [5] = target: T3, E23K mutant PAN endonuclease (Influenza A virus, UniProt C3W5S0, DEL52-63/E23K/E64G); assay type: binding, influenza A/California/04/2009(H1N1)
# [6] = target: T3, E23K mutant PAN endonuclease; assay type: binding, influenza A/California/04/2009(H1N1); remark: listed apart in the source
# [7] = target: A36V mutant PAN endonuclease (Influenza A virus, UniProt C3W5S0, A36V/DEL52-63/E64G); assay type: binding, influenza A/California/04/2009(H1N1); conditions: 200 µM
substance,measurement,setting,value
baloxavir acid [BXA],reduction in affinity,I38T mutant,30- to 50 fold
same,Kd,[1],9.3 ± 4.2 µM
same,ΔTM melting value between the WT and I38T mutants,WT and I38T mutants,8-10 °C
same,ΔTM,WT PAN endonuclease [2],22.9 ±0.08 °C
same,difference in ΔTM compared to WT (lower),[3],~ 8 °C
same,ΔTM,[3]; 200 µM,14.9 ±0.04 °C
same,Kd,WT PAN endonuclease [4],343 ± 106 nM
same,Kd,[5],26.1 ± 11.2 µM
same,difference in ΔTM compared to WT (lower),[6],< 3 °C
same,ΔTM,[6]; 200 µM,19.8 ±0.06 °C
same,ΔTM,[7],21.7 ±0.11 °C

# — article PMC10851415 (Biochemistry, 2024)
